Experiments:
[1] = system: retinoic acid-differentiated SH-SY5Y neuroblastoma cells; assay: Cytotoxicity in unstressed differentiated SH-SY5Y cells; format: cell-based, human; conditions: 0.5–50 μM, 24 h, XTT
recombinant human HDAC8 [2] = target: T1, recombinant human HDAC8 (Homo sapiens, UniProt Q9BY41); assay: HDAC8 inhibition, fluorescent substrate Fluor de Lys
T1 sequence (Q9BY41 1-377): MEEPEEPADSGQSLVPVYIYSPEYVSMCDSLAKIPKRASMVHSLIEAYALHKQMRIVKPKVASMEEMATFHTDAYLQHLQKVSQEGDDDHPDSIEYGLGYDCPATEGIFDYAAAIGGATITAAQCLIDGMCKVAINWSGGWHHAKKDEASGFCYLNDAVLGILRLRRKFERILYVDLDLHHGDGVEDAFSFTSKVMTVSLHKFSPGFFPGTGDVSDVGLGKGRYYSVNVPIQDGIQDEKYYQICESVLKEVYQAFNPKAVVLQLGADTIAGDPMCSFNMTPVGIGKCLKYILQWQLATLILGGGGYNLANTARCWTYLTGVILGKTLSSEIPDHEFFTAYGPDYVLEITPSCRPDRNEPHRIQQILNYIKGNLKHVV

[3] = target: recombinant human HDAC3/NCoR2 (Homo sapiens, UniProt O15379); assay: HDAC3 inhibition, fluorescent substrate Boc-L-Lys
Chain of recombinant human HDAC3/NCoR2 (O15379 whole entry): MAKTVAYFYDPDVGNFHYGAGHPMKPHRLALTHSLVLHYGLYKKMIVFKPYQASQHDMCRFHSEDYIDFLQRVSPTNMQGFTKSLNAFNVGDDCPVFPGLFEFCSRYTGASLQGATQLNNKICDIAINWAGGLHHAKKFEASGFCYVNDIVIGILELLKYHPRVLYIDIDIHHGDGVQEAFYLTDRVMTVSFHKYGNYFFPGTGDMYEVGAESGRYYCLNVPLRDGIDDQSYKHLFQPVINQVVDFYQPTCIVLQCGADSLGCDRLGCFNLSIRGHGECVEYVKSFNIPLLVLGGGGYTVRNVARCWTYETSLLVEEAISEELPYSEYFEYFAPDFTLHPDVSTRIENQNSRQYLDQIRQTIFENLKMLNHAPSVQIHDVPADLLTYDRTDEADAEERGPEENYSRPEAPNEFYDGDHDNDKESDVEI
Chain of recombinant human HDAC3/NCoR2 (Q9Y618 395-489 partner limits assumed): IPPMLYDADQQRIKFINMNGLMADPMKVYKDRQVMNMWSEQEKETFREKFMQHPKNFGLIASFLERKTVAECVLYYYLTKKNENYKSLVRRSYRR

[4] = system: retinoic acid differentiated SH-SY5Y human neuroblastoma cells treated with 30; assay: Neuroprotection assay, cells stressed with compound 30; format: cell-based; conditions: for Neuroprotective effect: differentiated SH-SY5Y cells stressed with 100 μM of 30, 24 h, XTT
[5] = system: HepG2, Hela and SH-SY5Y carcinoma cell lines; assay: Antiproliferative activity across the three carcinoma cell lines; format: cell-based; conditions: Homo sapiens, read-out: EC50–48 h, span over the three cell lines
recombinant human HDAC8 [6] = target: T1, recombinant human HDAC8; conditions: cited from earlier work
[7] = system: acetylation of histone H4 in retinoic acid-differentiated SH-SY5Y cells; assay: Acetylation of H4 in differentiated SH-SY5Y cells; format: cell-based, human; conditions: 1 μM, also in cells stressed with compound 30
[8] = system: acetylation of p53 in HepG2 cells; assay: Western blot, acetylation of p53 in HepG2 cells; format: cell-based, human; conditions: HepG2 total cell extracts
[9] = system: cleavage of caspase 3 in HepG2 cells; assay: Western blot, activation/cleavage of caspase 3 in HepG2 cells; format: cell-based, human

SMILES	EC50 [5] [µM]	Cytotoxicity to differentiated neuroblastoma cells [1]	Neuroprotective effect [4]	Hyperacetylation of histone H4 [7]	also measured
[N-]=[N+]=NCc1cc(COc2ccc(NC(=O)CCCCCCC(=O)NO)cc2)cc(N=[N+]=[N-])c1 [compound 1]	–	–	–	–	Fold decrease in HDAC8 inhibitory activity compared to SAHA (recombinant human HDAC8 [6]): 17 fold
[N-]=[N+]=NCc1cc(N=[N+]=[N-])cc(C(=O)Nc2ccc(-c3cc(C(=O)NCCCCCCC(=O)NO)no3)cc2)c1 [2b, 5-[4-(3-Azido-5-azidomethylbenzoylamino)phenyl]isoxazole-3-carboxylic acid (6-hydroxycarbamoylhexyl)amide]	11 to 32	–	protect cells from stress induced by compound 30 at low micromolar concentrations	induce hyperacetylation of histone H4	Acetylation of p53 [8]: neither SAHA nor 2b induced additional time and dose-dependent hyperacetylation of p53; Cleavage of caspase 3 [9]: induced cleavage of caspase 3 by 14 h with maximum activation at 24 h
[N-]=[N+]=Nc1ccc(-c2cc(C(=O)NCCCCCCC(=O)NO)no2)cc1 [2a, 5-(4-Azidophenyl)isoxazole-3-carboxylic acid(6-hydroxycarbamoylhexyl)amide]	–	not overly cytotoxic	protect cells from stress induced by compound 30 at low micromolar concentrations	induce hyperacetylation of histone H4	–

Continued, in another order:

EC50 [5] [µM]	SMILES	Cytotoxicity to differentiated neuroblastoma cells [1]	Neuroprotective effect [4]	Hyperacetylation of histone H4 [7]	also measured
10 to 23	[N-]=[N+]=Nc1ccc(Cn2cc(NC(=O)CCCCCCC(=O)NO)cn2)cc1 [3c, Octanedioic acid [1-(4-azidobenzyl)-1H-pyrazol-4-yl]amide hydroxyamide]	not toxic to the cells	non-neuroprotective	–	Fold better potency than 3a, HDAC8 (recombinant human HDAC8 [2]; compared with 3a): 2.7 fold; Fold better potency than 3a, HDAC3 ([3]; compared with 3a): 2.0 fold
10 to 23	O=C(CCCCCCC(=O)Nc1cnn(Cc2ccccc2)c1)NO [3a, Octanedioic acid (1-benzyl-1H-pyrazol-4-yl)amide hydroxyamide]	not toxic to the cells	non-neuroprotective	–	–
24 to 36	[N-]=[N+]=NCc1cc(Cn2cc(NC(=O)CCCCCCC(=O)NO)cn2)cc(N=[N+]=[N-])c1 [3f, Octanedioic acid [1-(3-azido-5-azidomethylbenzyl)-1H-pyrazol-4-yl]amide hydroxyamide]	subtle toxicity at 20 μM	protect cells from stress induced by compound 30 at low micromolar concentrations	induce hyperacetylation of histone H4	Fold more active towards HDAC8 than HDAC3 (selectivity) (recombinant human HDAC8 [2]; HDAC8 vs HDAC3): 8 fold; IC50 ratio compound/SAHA, HDAC3 [3]: ND ^e 4.74; Cell survival relative to vehicle ([4]; 0.5 and 1 μM, differentiated SH-SY5Y cells stressed with 100 μM of 30): more than doubles the amount of cell survival

Source: article PMC3466118 (Journal of medicinal chemistry, 2011)
